Data: US9975896B2, “Inhibitors of transcription factors and uses thereof” (Dana-Farber Cancer Institute, Inc., priority 2013, dated 2018)
Where a chain is given by its changes, count along the chain named. Where two headings read alike, the source gives them in different places.

Legend:
[1] = molecular target: T1, EP300 (Homo sapiens, UniProt Q09472); assay: BromoScan selectivity panel (Kd); assay type: binding
T1 sequence (Q09472 1040-1161 limits assumed): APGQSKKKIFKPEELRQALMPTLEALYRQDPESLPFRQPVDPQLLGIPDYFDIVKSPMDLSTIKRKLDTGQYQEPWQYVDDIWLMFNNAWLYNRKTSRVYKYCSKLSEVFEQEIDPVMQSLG

[2] = molecular target: T2, BRD9 (Homo sapiens, UniProt Q9H8M2); assay: BromoScan selectivity panel (Kd); assay type: binding
T2 sequence (Q9H8M2 130-250 limits assumed): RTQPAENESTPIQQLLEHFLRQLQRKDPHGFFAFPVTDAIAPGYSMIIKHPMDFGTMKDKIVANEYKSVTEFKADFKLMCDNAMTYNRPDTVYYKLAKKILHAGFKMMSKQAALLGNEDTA

[3] = molecular target: T3, ATAD2B (Homo sapiens, UniProt Q9ULI0); assay: BromoScan selectivity panel (Kd); assay type: binding
T3 sequence (Q9ULI0 953-1085 limits assumed): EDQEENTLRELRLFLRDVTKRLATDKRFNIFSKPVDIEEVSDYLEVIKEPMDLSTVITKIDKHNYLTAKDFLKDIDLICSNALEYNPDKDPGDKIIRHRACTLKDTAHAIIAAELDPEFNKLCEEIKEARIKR

[4] = molecular target: T4, BRD4(1) (Homo sapiens, UniProt O60885); assay: BromoScan selectivity panel (Kd); assay type: binding
T4 construct: the bromodomain-containing protein is BRD4(1)

[5] = molecular target: T5, TAF1L(2) (Homo sapiens, UniProt Q8IZX4); assay: BromoScan selectivity panel (Kd); assay type: binding
T5 construct: TAF1L(2)
T5 sequence (Q8IZX4 1517-1626 limits assumed): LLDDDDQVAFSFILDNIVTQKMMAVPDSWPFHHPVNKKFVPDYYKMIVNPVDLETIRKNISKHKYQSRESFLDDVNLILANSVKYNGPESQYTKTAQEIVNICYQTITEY

[6] = molecular target: BRD4 (Homo sapiens, UniProt O60885); assay: In vitro AlphaScreen protein binding assay (competition with biotinylated JQ1); settings: for IC50: AlphaScreen
[7] = molecular target: CBP (Homo sapiens, UniProt Q92793); assay: BromoScan selectivity panel (Kd)
[8] = molecular target: FALZ (Homo sapiens, UniProt Q12830); assay: BromoScan selectivity panel (Kd); assay type: binding
[9] = molecular target: T6, BAZ2A (Homo sapiens, UniProt Q9UIF9); assay: BromoScan selectivity panel (Kd); assay type: binding
T6 sequence (Q9UIF9 1796-1899 limits assumed): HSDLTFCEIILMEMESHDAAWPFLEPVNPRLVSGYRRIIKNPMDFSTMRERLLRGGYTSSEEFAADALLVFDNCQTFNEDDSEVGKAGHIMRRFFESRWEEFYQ

[10] = molecular target: T7, BAZ2B (Homo sapiens, UniProt Q9UIF8); assay: BromoScan selectivity panel (Kd); assay type: binding
T7 sequence (Q9UIF8 2054-2168 limits assumed): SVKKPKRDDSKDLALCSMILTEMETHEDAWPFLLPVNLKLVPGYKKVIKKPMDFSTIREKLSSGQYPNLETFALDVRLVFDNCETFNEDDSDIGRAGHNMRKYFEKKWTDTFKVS

[11] = molecular target: T8, TAF1(2) (Homo sapiens, UniProt P21675); assay: BromoScan selectivity panel (Kd); assay type: binding
T8 construct: TAF1(2)
T8 sequence (P21675 1519-1628 limits assumed): T5 sequence (Q8IZX4 1517-1626 limits assumed) with M46V, V51M, I102V, I107L

[12] = molecular target: T9, TRIM24(PHD Bromo.) (Homo sapiens, UniProt O15164); assay: BromoScan selectivity panel (Kd); assay type: binding
T9 construct: TRIM24(PHD Bromo.)
T9 sequence (O15164 824-1006 limits assumed): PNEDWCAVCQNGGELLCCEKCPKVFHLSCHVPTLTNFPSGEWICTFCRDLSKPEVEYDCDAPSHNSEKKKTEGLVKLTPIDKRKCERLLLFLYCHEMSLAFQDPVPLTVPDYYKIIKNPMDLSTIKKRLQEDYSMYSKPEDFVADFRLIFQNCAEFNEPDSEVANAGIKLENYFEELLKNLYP

[13] = molecular target: T10, BRD1 (Homo sapiens, UniProt O95696); assay: BromoScan selectivity panel (Kd); assay type: binding
T10 sequence (O95696 556-688 limits assumed): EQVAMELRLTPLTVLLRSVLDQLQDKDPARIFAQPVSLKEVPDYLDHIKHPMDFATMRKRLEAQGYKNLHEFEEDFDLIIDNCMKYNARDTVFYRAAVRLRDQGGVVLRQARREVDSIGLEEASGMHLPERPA

Sequence of CBP (Q92793 1081-1197 limits assumed): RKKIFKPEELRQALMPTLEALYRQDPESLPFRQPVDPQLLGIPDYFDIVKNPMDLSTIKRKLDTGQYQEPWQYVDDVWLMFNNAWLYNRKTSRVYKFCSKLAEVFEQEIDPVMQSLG

Compound `Cc1noc(C)c1-c1ccc(-c2nc3cnccn3c2NC(C)(C)C)cc1` [UMB32, N-(tert-butyl)-2-(4-(3,5-dimethylisoxazol-4-yl)phenyl)imidazo[1,2-a]pyrazin-3-amine] has a Kd ([1]; Table 8, read-out: Kd (nM) EP300) of 4500 nM, a Kd ([1]; Table 9, read-out: BromoScan Kd, nM EP300) of 4500 nM and a Kd ([2]; Table 8, read-out: Kd (nM) BRD9) of no less than 40000 nM. For the same compound, the Kd ([2]; Table 9, read-out: BromoScan Kd, nM BRD9) was no less than 40000 nM, the Kd ([3]; Table 8, read-out: Kd (nM) ATAD2B) was no less than 40000 nM and the Kd ([3]; Table 9, read-out: BromoScan Kd, nM ATAD2B) was no less than 40000 nM. It also gave a Kd ([4]; Table 8, read-out: Kd (nM) BRD4(1)) of 80 nM, a Kd ([4]; Table 9, read-out: BromoScan Kd, nM BRD4(1)) of 80 nM and a Kd ([5]; Table 8, read-out: Kd (nM) TAF1L(2)) of 1300 nM. The Kd ([5]; Table 9, read-out: BromoScan Kd, nM TAF1L(2)) was 1300 nM, the IC50 ([6]; BRD4 IC50 (μM), Table 3) was 0.26 µM and the IC50 ([6]; IC50 (M), Table 1, in vitro, inhibiting the activity of BRD4) was 0.256 µM. The “inhibition of the activity of BRD4 in vitro” value ([6]; text b614, b618) was “active in inhibiting the activity of BRD4 in vitro”, the Kd ([7]; read-out: BromoScan Kd, nM CREBBP, Table 9) was 4500 nM and the Kd ([7]; read-out: Kd (nM) CBP, Table 8) was 4500 nM. The Kd ([8]; Table 8, read-out: Kd (nM) FALZ) was no less than 40000 nM, the Kd ([8]; Table 9, read-out: BromoScan Kd, nM FALZ) was no less than 40000 nM and the Kd ([9]; Table 8, read-out: Kd (nM) BAZ2A) was no less than 40000 nM. The Kd ([9]; Table 9, read-out: BromoScan Kd, nM BAZ2A) was no less than 40000 nM, the Kd ([10]; Table 8, read-out: Kd (nM) BAZ2B) was no less than 40000 nM and the Kd ([10]; Table 9, read-out: BromoScan Kd, nM BAZ2B) was no less than 40000 nM. It also gave a Kd ([11]; Table 8, read-out: Kd (nM) TAF1(2)) of 560 nM, a Kd ([11]; Table 9, read-out: BromoScan Kd, nM TAF1(2)) of 560 nM and a Kd ([12]; Table 8, read-out: Kd (nM) TRIM24(PHD Bromo.)) of no less than 40000 nM. The Kd ([12]; Table 9, read-out: BromoScan Kd, nM TRIM24(PHD, Bromo.)) was no less than 40000 nM, the Kd ([13]; Table 8, read-out: Kd (nM) BRD1) was no less than 40000 nM and the Kd ([13]; Table 9, read-out: BromoScan Kd, nM BRD1) was no less than 40000 nM.
